Values quoted from earlier work in patent publication US6770269B1, “Cosmetic and dermatological light-protective formulations containing triazine derivatives and one or several esters of unbranched-chain carboxylic acids and branched-chain alcohols” (Beiersdorf AG, priority 1998, dated 2004).

CCCCC(CC)COC(=O)c1ccc(Nc2nc(Nc3ccc(C(=O)OCC(CC)CCCC)cc3)nc(Nc3ccc(C(=O)OCC(CC)CCCC)cc3)n2)cc1 (centres unmarked) [UVINUL7 T 150, tris(2-ethylhexyl) 4,4′,4″-(1,3,5-triazine-2,4,6-triyltriimino)trisbenzoate]
corresponding dissolved, and therefore active, UV filter substance (corresponds to the maximum solubility in known solvents): 1-1.5 % by weight
maximum amount of the filter that known solvents can dissolve (known solvents (lipids), prior art): about 15 % by weight
